Reference: patent US20050070510A1, “Substituted tetracycline compounds as synergistic antifungal agents” (Paratek Pharmaceuticals, Inc., priority 2001, published 2005)

Tested on: COS-1 cells
Assay: In vitro mammalian cytotoxicity assay (Resazurin)

Row | SMILES | In Vitro Cytotoxicity
1 | CCOc1ccccc1-c1ccc(O)c2c1C[C@@]1(N)C[C@@]3(N)[C@H](N(C)C)C(O)=C(C(N)=O)C(=O)[C@@]3(C#N)C(O)=C1C2=O [ER] | ** (toxicities less than 25 μg/mL are represented by **)
2 | CN(C)c1cc(-c2cccc(O)c2)c(O)c2c1C[C@@]1(N)C[C@@]3(N)[C@H](N(C)C)C(O)=C(C(N)=O)C(=O)[C@@]3(C#N)C(O)=C1C2=O [ES] | ** (toxicities less than 25 μg/mL are represented by **)
3 | CN(C)c1cc(-c2ccc(C(N)=O)cc2)c(O)c2c1C[C@@]1(N)C[C@@]3(N)[C@H](N(C)C)C(O)=C(C(N)=O)C(=O)[C@@]3(C#N)C(O)=C1C2=O [ET] | ** (toxicities less than 25 μg/mL are represented by **)
4 | CN(C)c1cc(-c2cccc(C(N)=O)c2)c(O)c2c1C[C@@]1(N)C[C@@]3(N)[C@H](N(C)C)C(O)=C(C(N)=O)C(=O)[C@@]3(C#N)C(O)=C1C2=O [EU] | ** (toxicities less than 25 μg/mL are represented by **)
5 | CN(C)c1cc(-c2ccc(Cl)c(Cl)c2)c(O)c2c1C[C@@]1(N)C[C@@]3(N)[C@H](N(C)C)C(O)=C(C(N)=O)C(=O)[C@@]3(C#N)C(O)=C1C2=O [EV] | ** (toxicities less than 25 μg/mL are represented by **)
6 | CN(C)c1cc(-c2ccc(F)cc2F)c(O)c2c1C[C@@]1(N)C[C@@]3(N)[C@H](N(C)C)C(O)=C(C(N)=O)C(=O)[C@@]3(C#N)C(O)=C1C2=O [EX] | ** (toxicities less than 25 μg/mL are represented by **)
7 | CN(C)c1cc(-c2ccc(F)c(F)c2)c(O)c2c1C[C@@]1(N)C[C@@]3(N)[C@H](N(C)C)C(O)=C(C(N)=O)C(=O)[C@@]3(C#N)C(O)=C1C2=O [EY] | ** (toxicities less than 25 μg/mL are represented by **)
8 | CN(C)[C@@H]1C(O)=C(C(N)=O)C(=O)[C@@]2(C#N)C(O)=C3C(=O)c4c(O)cccc4C[C@@]3(N)[C@H](NC(=O)CCN3CCOCC3)[C@@]12N [EZ] | ** (toxicities less than 25 μg/mL are represented by **)
9 | CN(C)[C@@H]1C(O)=C(C(N)=O)C(=O)[C@@]2(C#N)C(O)=C3C(=O)c4c(O)ccc(/C=C/c5ccccn5)c4C[C@@]3(N)C[C@@]12N [FA] | ** (toxicities less than 25 μg/mL are represented by **)
10 | CN(C)[C@@H]1C(O)=C(C(N)=O)C(=O)[C@@]2(C#N)C(O)=C3C(=O)c4c(O)ccc(C#Cc5ccccc5)c4C[C@@]3(N)C[C@@]12N [FB] | ** (toxicities less than 25 μg/mL are represented by **)
11 | CN(C)[C@@H]1C(O)=C(C(N)=O)C(=O)[C@@]2(C#N)C(O)=C3C(=O)c4c(O)ccc(-c5cccc(N)c5)c4C[C@@]3(N)C[C@@]12N [FC] | ** (toxicities less than 25 μg/mL are represented by **)
12 | CN(C)[C@@H]1C(O)=C(C(N)=O)C(=O)[C@@]2(C#N)C(O)=C3C(=O)c4c(O)ccc(C5C=CCC5)c4C[C@@]3(N)C[C@@]12N (stereo partly shown) [FD] | ** (toxicities less than 25 μg/mL are represented by **)
13 | COc1ccc(C#Cc2cc(N(C)C)c3c(c2O)C(=O)C2=C(O)[C@]4(C#N)C(=O)C(C(N)=O)=C(O)[C@@H](N(C)C)[C@]4(N)C[C@]2(N)C3)cc1 [FE] | ** (toxicities less than 25 μg/mL are represented by **)
14 | CN(C)c1cc(C#Cc2ccc(F)cc2)c(O)c2c1C[C@@]1(N)C[C@@]3(N)[C@H](N(C)C)C(O)=C(C(N)=O)C(=O)[C@@]3(C#N)C(O)=C1C2=O [FF] | ** (toxicities less than 25 μg/mL are represented by **)
15 | CN(C)c1cc(C#Cc2cccc(O)c2)c(O)c2c1C[C@@]1(N)C[C@@]3(N)[C@H](N(C)C)C(O)=C(C(N)=O)C(=O)[C@@]3(C#N)C(O)=C1C2=O [FG] | ** (toxicities less than 25 μg/mL are represented by **)
16 | CC#Cc1cc(N(C)C)c2c(c1O)C(=O)C1=C(O)[C@]3(C#N)C(=O)C(C(N)=O)=C(O)[C@@H](N(C)C)[C@]3(N)C[C@]1(N)C2 [FH] | * (toxicities greater than >25 μg/ml are represented by *)
17 | CN(C)[C@@H]1C(O)=C(C(N)=O)C(=O)[C@@]2(C#N)C(O)=C3C(=O)c4c(O)ccc(C#CC5CCCCC5)c4C[C@@]3(N)C[C@@]12N [FI] | ** (toxicities less than 25 μg/mL are represented by **)
18 | CN(C)CC#Cc1ccc(O)c2c1C[C@@]1(N)C[C@@]3(N)[C@H](N(C)C)C(O)=C(C(N)=O)C(=O)[C@@]3(C#N)C(O)=C1C2=O [FJ] | ** (toxicities less than 25 μg/mL are represented by **)
19 | CN(C)[C@@H]1C(O)=C(C(N)=O)C(=O)[C@@]2(C#N)C(O)=C3C(=O)c4c(O)ccc(C#Cc5c(F)c(F)c(F)c(F)c5F)c4C[C@@]3(N)C[C@@]12N [FK] | ** (toxicities less than 25 μg/mL are represented by **)
20 | Cc1ccc(C#Cc2cc(N(C)C)c3c(c2O)C(=O)C2=C(O)[C@]4(C#N)C(=O)C(C(N)=O)=C(O)[C@@H](N(C)C)[C@]4(N)C[C@]2(N)C3)cc1 [FL] | ** (toxicities less than 25 μg/mL are represented by **)
21 | CN(C)[C@@H]1C(O)=C(C(N)=O)C(=O)[C@@]2(C#N)C(O)=C3C(=O)c4c(O)ccc(-c5cc6ccccc6o5)c4C[C@@]3(N)C[C@@]12N [FM] | * (toxicities greater than >25 μg/ml are represented by *)
22 | CN(C)c1cc(C#CC2(O)CCCCC2)c(O)c2c1C[C@@]1(N)C[C@@]3(N)[C@H](N(C)C)C(O)=C(C(N)=O)C(=O)[C@@]3(C#N)C(O)=C1C2=O [FP] | * (toxicities greater than >25 μg/ml are represented by *)

Row | SMILES | In Vitro Cytotoxicity
23 | CN(C)[C@@H]1C(O)=C(C(N)=O)C(=O)[C@@]2(C#N)C(O)=C3C(=O)c4c(O)ccc(-c5ccc(C(F)(F)F)cc5)c4C[C@@]3(N)C[C@@]12N [FQ] | ** (toxicities less than 25 μg/mL are represented by **)
24 | Cc1ccc(-c2ccc(O)c3c2C[C@@]2(N)C[C@@]4(N)[C@H](N(C)C)C(O)=C(C(N)=O)C(=O)[C@@]4(C#N)C(O)=C2C3=O)cc1 [FR] | ** (toxicities less than 25 μg/mL are represented by **)
25 | CN(C)[C@@H]1C(O)=C(C(N)=O)C(=O)[C@@]2(C#N)C(O)=C3C(=O)c4c(O)ccc(C=C5CCC5)c4C[C@@]3(N)C[C@@]12N [FS] | ** (toxicities less than 25 μg/mL are represented by **)
26 | CCOc1ccc(-c2ccc(O)c3c2C[C@@]2(N)C[C@@]4(N)[C@H](N(C)C)C(O)=C(C(N)=O)C(=O)[C@@]4(C#N)C(O)=C2C3=O)cc1 [FT] | ** (toxicities less than 25 μg/mL are represented by **)
27 | CN(C)[C@@H]1C(O)=C(C(N)=O)C(=O)[C@@]2(C#N)C(O)=C3C(=O)c4c(O)ccc(C#Cc5ccc([N+](=O)O)cc5)c4C[C@@]3(N)C[C@@]12N [FU] | ** (toxicities less than 25 μg/mL are represented by **)
28 | CN(C)[C@@H]1C(O)=C(C(N)=O)C(=O)[C@@]2(C#N)C(O)=C3C(=O)c4c(O)ccc(-c5ccc(Cl)o5)c4C[C@@]3(N)C[C@@]12N [FV] | ** (toxicities less than 25 μg/mL are represented by **)
29 | CN(C)[C@@H]1C(O)=C(C(N)=O)C(=O)[C@@]2(C#N)C(O)=C3C(=O)c4c(O)ccc(-c5cc6ccccc6o5)c4C[C@@]3(N)C[C@@]12N [FW] | ** (toxicities less than 25 μg/mL are represented by **)
30 | CN(C)[C@@H]1C(O)=C(C(N)=O)C(=O)[C@@]2(C#N)C(O)=C3C(=O)c4c(O)ccc(C#Cc5ccccc5)c4C[C@@]3(N)C[C@@]12N [FX] | ** (toxicities less than 25 μg/mL are represented by **)
31 | CCCc1cccc(-c2ccc(O)c3c2C[C@@]2(N)C[C@@]4(N)[C@H](N(C)C)C(O)=C(C(N)=O)C(=O)[C@@]4(C#N)C(O)=C2C3=O)c1 [FY] | ** (toxicities less than 25 μg/mL are represented by **)
32 | COc1ccc(C#Cc2ccc(O)c3c2C[C@@]2(N)C[C@@]4(N)[C@H](N(C)C)C(O)=C(C(N)=O)C(=O)[C@@]4(C#N)C(O)=C2C3=O)cc1 [FZ] | ** (toxicities less than 25 μg/mL are represented by **)
33 | CN(C)[C@@H]1C(O)=C(C(N)=O)C(=O)[C@@]2(C#N)C(O)=C3C(=O)c4c(O)ccc(C#CC5(C#N)CCCCC5)c4C[C@@]3(N)C[C@@]12N [GA] | ** (toxicities less than 25 μg/mL are represented by **)
34 | Cc1cc(C)cc(-c2ccc(O)c3c2C[C@@]2(N)C[C@@]4(N)[C@H](N(C)C)C(O)=C(C(N)=O)C(=O)[C@@]4(C#N)C(O)=C2C3=O)c1 [GD] | ** (toxicities less than 25 μg/mL are represented by **)
35 | CCc1ccc(O)c2c1C[C@@]1(N)C[C@@]3(N)[C@H](N(C)C)C(O)=C(C(N)=O)C(=O)[C@@]3(C#N)C(O)=C1C2=O [GE] | ** (toxicities less than 25 μg/mL are represented by **)
36 | CN(C)[C@@H]1C(O)=C(C(N)=O)C(=O)[C@@]2(C#N)C(O)=C3C(=O)c4c(O)ccc(C#CC5=CCCCC5)c4C[C@@]3(N)C[C@@]12N [GF] | ** (toxicities less than 25 μg/mL are represented by **)
37 | CN(C)[C@@H]1C(O)=C(C(N)=O)C(=O)[C@@]2(C#N)C(O)=C3C(=O)c4c(O)ccc(/C=C(\Cl)C5=CCCCC5)c4C[C@@]3(N)C[C@@]12N [GG] | ** (toxicities less than 25 μg/mL are represented by **)
38 | CN(C)[C@@H]1C(O)=C(C(N)=O)C(=O)[C@@]2(C#N)C(O)=C3C(=O)c4c(O)ccc(C#Cc5ccccc5F)c4C[C@@]3(N)C[C@@]12N [GH] | ** (toxicities less than 25 μg/mL are represented by **)
39 | Cc1ccc(C#Cc2ccc(O)c3c2C[C@@]2(N)C[C@@]4(N)[C@H](N(C)C)C(O)=C(C(N)=O)C(=O)[C@@]4(C#N)C(O)=C2C3=O)cc1 [GI] | ** (toxicities less than 25 μg/mL are represented by **)
40 | Cc1ccc(-c2ccc(O)c3c2C[C@@]2(N)C[C@@]4(N)[C@H](N(C)C)C(O)=C(C(N)=O)C(=O)[C@@]4(C#N)C(O)=C2C3=O)s1 [GJ] | ** (toxicities less than 25 μg/mL are represented by **)
41 | CN(C)[C@@H]1C(O)=C(C(N)=O)C(=O)[C@@]2(C#N)C(O)=C3C(=O)c4c(O)ccc(-c5ccc(C(C)(C)C)cc5)c4C[C@@]3(N)C[C@@]12N [GK] | ** (toxicities less than 25 μg/mL are represented by **)
42 | COc1ccc(Cl)cc1-c1ccc(O)c2c1C[C@@]1(N)C[C@@]3(N)[C@H](N(C)C)C(O)=C(C(N)=O)C(=O)[C@@]3(C#N)C(O)=C1C2=O [GL] | ** (toxicities less than 25 μg/mL are represented by **)
43 | CN(C)[C@@H]1C(O)=C(C(N)=O)C(=O)[C@@]2(C#N)C(O)=C3C(=O)c4c(O)ccc(-c5ccccc5Cl)c4C[C@@]3(N)C[C@@]12N [GM] | ** (toxicities less than 25 μg/mL are represented by **)
